The source of these data is ChEMBL document CHEMBL3352569, “Design, synthesis and structure-activity relationship studies of novel sirtuin 2 (SIRT2) inhibitors with a benzamide skeleton” (Bioorg Med Chem, 2015).

Molecules are shown by their SMILES. pIC50: −log10 of the molar value. Where only a bound is given, the exact number is not on record here.

In general, inhibition refers to the share of the control response that was lost under treatment. Broadly, the pIC50 is −log10 of the IC50, conventionally taken in molar units.

The target in assay [1] is T1, NAD-dependent protein deacetylase sirtuin-2 (Homo sapiens) (UniProt Q8IXJ6).
T1 sequence (whole entry): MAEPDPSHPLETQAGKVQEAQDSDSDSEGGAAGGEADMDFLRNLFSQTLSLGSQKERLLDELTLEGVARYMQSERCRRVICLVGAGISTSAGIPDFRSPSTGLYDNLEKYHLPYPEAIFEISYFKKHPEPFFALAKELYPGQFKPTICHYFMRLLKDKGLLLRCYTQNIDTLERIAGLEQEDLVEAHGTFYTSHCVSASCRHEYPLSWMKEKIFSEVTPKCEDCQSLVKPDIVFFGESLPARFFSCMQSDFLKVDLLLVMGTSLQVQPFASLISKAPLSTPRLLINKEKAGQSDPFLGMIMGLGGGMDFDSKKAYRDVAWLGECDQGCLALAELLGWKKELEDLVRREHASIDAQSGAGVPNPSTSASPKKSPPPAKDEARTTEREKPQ
Briefly: Inhibition of GST-tagged human recombinant SIRT2 (34 to 356 residues) expressed in Escherichia coli BL21 at 50 uM using Fluor de Lys-SIRT as substrate incubated for 60 mins prior to substrate addition measured after 45 mins by fluorimetric analysis.

Assay [2] has as its target T1, NAD-dependent protein deacetylase sirtuin-2 (Homo sapiens). Briefly: Inhibition of GST-tagged human recombinant SIRT2 (34 to 356 residues) expressed in Escherichia coli BL21 at 10 uM using Fluor de Lys-SIRT as substrate incubated for 60 mins prior to substrate addition measured after 45 mins by fluorimetric analysis.
Assay [3] concerns the target T2, NAD-dependent protein deacetylase sirtuin-2 (Homo sapiens, UniProt Q8IXJ6).
T2 sequence (Q8IXJ6 whole entry): T1 sequence (whole entry)
Briefly: Inhibition of GST-tagged human recombinant SIRT2 (34 to 356 residues) expressed in Escherichia coli BL21 using Fluor de Lys-SIRT as substrate incubated for 60 mins prior to substrate addition measured after 45 mins by fluorimetric analysis.

Assay [4] concerns the target T3, NAD-dependent protein deacetylase sirtuin-1 (Homo sapiens, UniProt Q96EB6).
T3 sequence (Q96EB6 whole entry): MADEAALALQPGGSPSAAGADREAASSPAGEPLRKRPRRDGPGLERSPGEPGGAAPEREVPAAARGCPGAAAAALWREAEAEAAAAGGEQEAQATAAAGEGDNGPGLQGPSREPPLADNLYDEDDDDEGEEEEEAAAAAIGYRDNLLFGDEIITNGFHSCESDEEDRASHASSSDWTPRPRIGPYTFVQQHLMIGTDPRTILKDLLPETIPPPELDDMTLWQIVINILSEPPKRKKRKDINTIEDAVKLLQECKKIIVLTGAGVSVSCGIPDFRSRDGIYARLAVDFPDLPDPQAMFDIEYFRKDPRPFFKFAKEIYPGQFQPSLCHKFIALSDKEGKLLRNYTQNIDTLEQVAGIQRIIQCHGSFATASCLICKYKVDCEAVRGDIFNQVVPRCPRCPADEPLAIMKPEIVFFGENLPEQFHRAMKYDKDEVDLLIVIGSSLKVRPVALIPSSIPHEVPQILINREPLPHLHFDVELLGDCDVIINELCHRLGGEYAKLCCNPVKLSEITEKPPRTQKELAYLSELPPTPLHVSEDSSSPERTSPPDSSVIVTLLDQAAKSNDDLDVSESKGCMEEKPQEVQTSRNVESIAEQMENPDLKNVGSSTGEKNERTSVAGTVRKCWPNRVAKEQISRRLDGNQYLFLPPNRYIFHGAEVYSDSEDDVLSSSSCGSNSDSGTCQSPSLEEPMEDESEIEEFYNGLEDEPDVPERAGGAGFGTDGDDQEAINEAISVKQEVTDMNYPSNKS
The assay is described as follows: Inhibition of human SIRT1.

The target in assay [5] is T4, NAD-dependent protein deacetylase sirtuin-3, mitochondrial (Homo sapiens, UniProt Q9NTG7).
T4 sequence (Q9NTG7 whole entry): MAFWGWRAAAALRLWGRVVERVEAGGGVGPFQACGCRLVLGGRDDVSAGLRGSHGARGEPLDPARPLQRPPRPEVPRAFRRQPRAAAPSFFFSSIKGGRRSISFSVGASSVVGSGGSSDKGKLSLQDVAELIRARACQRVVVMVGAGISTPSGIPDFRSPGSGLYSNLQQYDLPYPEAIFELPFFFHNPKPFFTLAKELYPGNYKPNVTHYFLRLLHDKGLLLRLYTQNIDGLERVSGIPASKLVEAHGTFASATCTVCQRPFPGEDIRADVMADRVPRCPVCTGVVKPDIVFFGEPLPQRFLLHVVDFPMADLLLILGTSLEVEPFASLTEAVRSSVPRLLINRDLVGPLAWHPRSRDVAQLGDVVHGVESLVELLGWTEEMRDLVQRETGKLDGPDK
The assay is described as follows: Inhibition of human SIRT3.

The target in assay [6] is T3, NAD-dependent protein deacetylase sirtuin-1. The assay is described as follows: Inhibition of human recombinant SIRT1 using Fluor de Lys-SIRT as substrate incubated for 60 mins prior to substrate addition measured after 45 mins by fluorimetric analysis.
The target of assay [7] is T4, NAD-dependent protein deacetylase sirtuin-3, mitochondrial. The assay is described as follows: Inhibition of human recombinant SIRT3 using Fluor de Lys-SIRT as substrate incubated for 60 mins prior to substrate addition measured after 45 mins by fluorimetric analysis.
The target of assay [8] is T1, NAD-dependent protein deacetylase sirtuin-2 (Homo sapiens). Conditions: 25 uM.
Description: Inhibition of human recombinant SIRT2 at 25 uM

For the molecule `COc1cccc(C(=O)Nc2cccc(NC(=O)c3ccccc3Br)c2)c1`, the inhibition in assay [1] amounted to 19%; in assay [2] it was 4%. `O=C(Nc1cccc(Br)c1)c1cccc(-c2ccc3ccccc3c2)c1`: the inhibition in assay [1] is 46%; in assay [2], 23%. `COc1ccc(C(=O)Nc2cccc(NC(=O)c3ccccc3Br)c2)cc1`: the inhibition was determined as 31% in assay [1] and 10% in assay [2]. Taken in the same sequence, the figures for `COc1ccc(C(=O)Nc2cccc(NC(=O)c3cccc(Br)c3)c2)cc1` were 0% and 4%. Take `O=C(Nc1ncccn1)c1cccc(-c2ccc3ccccc3c2)c1`: in assay [3], the negative-log IC50 (pIC50) is 4.89. As for `O=C(Nc1ccnnc1)c1cccc(-c2ccc3ccccc3c2)c1`, in assay [3], the pIC50 was 5.20. `COc1cccc(C(=O)Nc2cccc(-c3ccc4ccccc4c3)c2)c1`: the inhibition turned out to be 44% in assay [1] and 8% in assay [2].

Take `O=C(Nc1cccc(-c2ccc3ccccc3c2)c1)c1cccc(Br)c1`: the inhibition was determined as 43% in assay [1] and 19% in assay [2]. As to `O=C(Nc1cccc(NC(=O)c2ccccc2)c1)c1ccccc1`, the inhibition was 10% in assay [1] and 3% in assay [2]. In the case of `O=C(Nc1cccc(-c2ccc3ccccc3c2)c1)c1ccccc1Br`, the inhibition in assay [1] was determined as 56%; in assay [2], 39%. With `N#C/C(=C\c1ccc(-c2cc(Cl)ccc2Cl)o1)C(=O)Nc1cccc2ncccc12`, in assay [4], the pIC50 was under 4.30.

On to `O=C(Nc1cccc(NC(=O)c2cccc(Br)c2)c1)c1cccc(Br)c1`, for which the inhibition was determined as 12% in assay [1] and 7% in assay [2]. For `O=C(Nc1cnccn1)c1cccc(-c2ccc3ccccc3c2)c1`, in assay [3], the negative-log IC50 (pIC50) was 5.21. Regarding `O=C(Nc1ccccc1)c1cccc(-c2ccc3ccccc3c2)c1`, the values for the inhibition in assay [1] and in assay [2] were 14% and 21%, respectively. `O=C(Nc1ccncc1)c1cccc(-c2ccc3ccccc3c2)c1`: the negative logarithm of the IC50 (pIC50) in assay [3] was 4.80. For `O=C(Nc1cc[nH]n1)c1cccc(-c2ccc3ccccc3c2)c1`, the negative-log IC50 (pIC50) in assay [3] was 4.38.

In the case of `O=C(Nc1nccs1)c1cccc(-c2ccc3ccccc3c2)c1`, the pIC50 in assay [3] is 4.92. For the molecule `O=C(Nc1ccccc1Br)c1cccc(-c2ccc3ccccc3c2)c1`, the inhibition in assay [1] came to 95%; in assay [2], 64%. The negative-log IC50 (pIC50) in assay [3] is 5.28.

For `O=C(Nc1cccnc1)c1cccc(-c2ccc3ccccc3c2)c1`, the pIC50 in assay [3] was 5.48. For `O=C(Nc1cccc(Br)c1)c1cccc(S(=O)(=O)N2CCCCCC2)c1`, the pIC50 in assay [4] and in assay [5] was under 4.30 throughout. For `COc1ccccc1C(=O)Nc1cccc(-c2ccc3ccccc3c2)c1`, the figures for the inhibition in assay [1] and in assay [2] were 47% and 10%, respectively. For `O=C(Nc1cnccc1Br)c1cccc(-c2ccc3ccccc3c2)c1`, the figures for the pIC50 in assay [6], in assay [7] and in assay [3] were under 4.00, under 4.00 and 6.22, respectively. `O=C(Nc1ccccc1[N+](=O)[O-])c1cccc(-c2ccc3ccccc3c2)c1`: the results for the inhibition in assay [1] and in assay [2] were 76% and 30%, respectively. Taken in the same sequence, the figures for `COc1ccccc1C(=O)Nc1cccc(NC(=O)c2cccc(Br)c2)c1` were 39% and 11%. For `Cc1ccccc1C(=O)Nc1cccc(NC(=O)c2ccccc2Br)c1`, the inhibition in assay [1] was determined as 0%; in assay [2], 1%.

On to `O=C(Nc1cccc(NC(=O)c2ccccc2Br)c1)c1cccc(Br)c1`, for which the inhibition in assay [1] worked out at 19%; in assay [2], 0%. Turning to `Nc1ccccc1NC(=O)c1cccc(-c2ccc3ccccc3c2)c1`, the inhibition in assay [1] was found to be 29%; in assay [2], 22%. Consider `O=C(Nc1cccc(NC(=O)c2ccccc2Br)c1)c1ccccc1`, for which the inhibition in assay [1] was 28%; in assay [2], 8%. With `O=C(Nc1ccccn1)c1cccc(-c2ccc3ccccc3c2)c1`, the pIC50 in assay [3] was 4.66.

In the case of `O=C(Nc1cccc(NC(=O)c2ccccc2Br)c1)c1ccccc1Br`, the inhibition in assay [1] worked out at 49%; in assay [2], 3%. For the molecule `COc1cccc(NC(=O)c2cccc(-c3ccc4ccccc4c3)c2)c1`, the results for the inhibition in assay [1] and in assay [2] were 66% and 29%, respectively.

Regarding `O=C(Nc1cccc(NC(=O)c2cc(C(F)(F)F)cc(C(F)(F)F)c2)c1)c1cccc(Br)c1`, the inhibition came to 12% in assay [1] and 3% in assay [2]. As for `O=C(Nc1cccnn1)c1cccc(-c2ccc3ccccc3c2)c1`, the pIC50 in assay [3] is 6.05. Take `O=C(Nc1cccc(NC(=O)c2cccc(Br)c2)c1)c1cc(Cl)cc(Cl)c1`: the inhibition amounted to 10% in assay [1] and 0% in assay [2]. Turning to `COc1ccccc1C(=O)Nc1cccc(NC(=O)c2ccccc2Br)c1`, the inhibition in assay [1] was 28%; in assay [2], 10%. In assay [8], `CC(C(=O)Nc1cccc(/N=C/c2c(O)ccc3ccccc23)c1)c1ccccc1` (centres undefined) displayed an inhibition of 80%. `COc1ccccc1NC(=O)c1cccc(-c2ccc3ccccc3c2)c1`: the inhibition turned out to be 89% in assay [1] and 51% in assay [2]. Moreover, the pIC50 in assay [3] was 4.96. As to `O=C(Nc1nc[nH]n1)c1cccc(-c2ccc3ccccc3c2)c1`, the pIC50 in assay [3] is 4.24. On to `Cc1cccc(C(=O)Nc2cccc(NC(=O)c3ccccc3Br)c2)c1`, for which the inhibition in assay [1] worked out at 24%; in assay [2], 18%.
